Measurements published in ChEMBL document CHEMBL1201862, “PubChem BioAssay data set” (2004).
The source made the active and inactive calls.

Tests used:
Protein skinhead-1 = biological target: T1, Protein skinhead-1 (Caenorhabditis elegans, UniProt P34707); type: functional
T1 sequence (P34707 whole entry): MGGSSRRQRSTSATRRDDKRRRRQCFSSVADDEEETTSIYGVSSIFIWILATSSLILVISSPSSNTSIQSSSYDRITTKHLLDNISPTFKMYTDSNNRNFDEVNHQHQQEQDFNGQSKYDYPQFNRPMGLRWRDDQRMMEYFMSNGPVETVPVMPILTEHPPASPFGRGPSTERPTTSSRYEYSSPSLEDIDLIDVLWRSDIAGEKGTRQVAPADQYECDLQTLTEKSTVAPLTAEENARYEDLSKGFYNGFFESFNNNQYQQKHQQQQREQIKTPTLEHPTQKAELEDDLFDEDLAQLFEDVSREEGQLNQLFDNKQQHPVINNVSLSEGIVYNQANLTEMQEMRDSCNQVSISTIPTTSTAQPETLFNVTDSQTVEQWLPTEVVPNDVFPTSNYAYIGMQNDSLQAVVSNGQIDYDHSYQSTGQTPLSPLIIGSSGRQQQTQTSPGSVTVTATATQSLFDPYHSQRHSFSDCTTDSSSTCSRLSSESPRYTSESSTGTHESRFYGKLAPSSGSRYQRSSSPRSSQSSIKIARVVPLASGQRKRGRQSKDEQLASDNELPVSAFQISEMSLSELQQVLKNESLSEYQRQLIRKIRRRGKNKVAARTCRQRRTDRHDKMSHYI

[1] = biological target: T2, Short transient receptor potential channel 4 (Mus musculus, UniProt Q9QUQ5); experiment: mouse TRPC4 channel activators, dose response, cell-based, HEK293 TRPC4/mu-opioid, Fluo-4 calcium (AID 434937); type: functional
T2 sequence (Q9QUQ5 whole entry): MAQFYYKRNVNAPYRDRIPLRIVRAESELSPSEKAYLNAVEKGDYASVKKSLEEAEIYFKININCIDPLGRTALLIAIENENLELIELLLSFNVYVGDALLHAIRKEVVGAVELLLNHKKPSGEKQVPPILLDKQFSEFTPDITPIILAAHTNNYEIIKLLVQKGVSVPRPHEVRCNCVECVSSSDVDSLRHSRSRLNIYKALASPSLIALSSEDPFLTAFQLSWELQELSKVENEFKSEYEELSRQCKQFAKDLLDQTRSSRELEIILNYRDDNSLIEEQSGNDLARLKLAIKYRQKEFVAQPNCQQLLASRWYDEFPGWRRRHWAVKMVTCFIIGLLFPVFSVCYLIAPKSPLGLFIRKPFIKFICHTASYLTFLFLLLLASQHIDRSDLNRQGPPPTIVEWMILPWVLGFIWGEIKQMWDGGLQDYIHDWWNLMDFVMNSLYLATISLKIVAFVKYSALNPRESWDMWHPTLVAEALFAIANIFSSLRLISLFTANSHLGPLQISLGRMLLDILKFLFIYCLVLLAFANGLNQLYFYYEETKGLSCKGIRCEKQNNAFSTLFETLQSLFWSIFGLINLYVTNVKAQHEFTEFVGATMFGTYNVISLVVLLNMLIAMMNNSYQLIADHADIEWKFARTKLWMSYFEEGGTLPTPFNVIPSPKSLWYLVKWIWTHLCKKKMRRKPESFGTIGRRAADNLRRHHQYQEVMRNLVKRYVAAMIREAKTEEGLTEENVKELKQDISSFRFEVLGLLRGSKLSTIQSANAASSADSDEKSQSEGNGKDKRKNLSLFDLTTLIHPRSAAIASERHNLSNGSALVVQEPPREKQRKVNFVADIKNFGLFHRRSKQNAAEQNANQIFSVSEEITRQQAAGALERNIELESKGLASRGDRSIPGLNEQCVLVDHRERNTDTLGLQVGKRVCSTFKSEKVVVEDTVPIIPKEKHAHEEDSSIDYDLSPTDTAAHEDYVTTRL

[2] = inhibitors of SNCA 5'UTR-driven reporter translation, confirmation, H4 neuroglioma cells, luminescence (AID 1988); type: functional, cell-based
[3] = Luminescence Cell-Based Dose Response HTS to Identify Inhibitors of 5'UTR Stem-Loop Driven Prion Protein mRNA Translation in H4 Neuroglioblastoma Cells. [Related pubchem assays: 1827 (Project Summary), 1813 (Primary HTS)]; type: functional
[4] = inhibitors of firefly luciferase expression or activity, dose response, H4 neuroglioma cells, luminescence (AID 1990); type: functional, cell-based
[5] = cytotoxicity in HEK-293T cells, dose response, cytotoxicity control for BCR NF-kB inhibitor project, luminescence, B-cell screen hits (AID 489021); type: functional, cell-based;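 further: HEK-293T cells carrying an NF-kB luciferase reporter; cells exposed to compound for about 14 hours before viability readout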
Fatty acid synthase = Fatty acid synthase (Homo sapiens, UniProt P49327); experiment: FAS thioesterase domain inhibitors, dose response, biochemical, kinetic fluorescence intensity (AID 624326); type: functional;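 further: rate of fluorescence rise from hydrolysis of a fluorogenic O-methyl fluorescein ester substrate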
Fatty acid synthase, sequence (P49327 whole entry, the tested form may be a part): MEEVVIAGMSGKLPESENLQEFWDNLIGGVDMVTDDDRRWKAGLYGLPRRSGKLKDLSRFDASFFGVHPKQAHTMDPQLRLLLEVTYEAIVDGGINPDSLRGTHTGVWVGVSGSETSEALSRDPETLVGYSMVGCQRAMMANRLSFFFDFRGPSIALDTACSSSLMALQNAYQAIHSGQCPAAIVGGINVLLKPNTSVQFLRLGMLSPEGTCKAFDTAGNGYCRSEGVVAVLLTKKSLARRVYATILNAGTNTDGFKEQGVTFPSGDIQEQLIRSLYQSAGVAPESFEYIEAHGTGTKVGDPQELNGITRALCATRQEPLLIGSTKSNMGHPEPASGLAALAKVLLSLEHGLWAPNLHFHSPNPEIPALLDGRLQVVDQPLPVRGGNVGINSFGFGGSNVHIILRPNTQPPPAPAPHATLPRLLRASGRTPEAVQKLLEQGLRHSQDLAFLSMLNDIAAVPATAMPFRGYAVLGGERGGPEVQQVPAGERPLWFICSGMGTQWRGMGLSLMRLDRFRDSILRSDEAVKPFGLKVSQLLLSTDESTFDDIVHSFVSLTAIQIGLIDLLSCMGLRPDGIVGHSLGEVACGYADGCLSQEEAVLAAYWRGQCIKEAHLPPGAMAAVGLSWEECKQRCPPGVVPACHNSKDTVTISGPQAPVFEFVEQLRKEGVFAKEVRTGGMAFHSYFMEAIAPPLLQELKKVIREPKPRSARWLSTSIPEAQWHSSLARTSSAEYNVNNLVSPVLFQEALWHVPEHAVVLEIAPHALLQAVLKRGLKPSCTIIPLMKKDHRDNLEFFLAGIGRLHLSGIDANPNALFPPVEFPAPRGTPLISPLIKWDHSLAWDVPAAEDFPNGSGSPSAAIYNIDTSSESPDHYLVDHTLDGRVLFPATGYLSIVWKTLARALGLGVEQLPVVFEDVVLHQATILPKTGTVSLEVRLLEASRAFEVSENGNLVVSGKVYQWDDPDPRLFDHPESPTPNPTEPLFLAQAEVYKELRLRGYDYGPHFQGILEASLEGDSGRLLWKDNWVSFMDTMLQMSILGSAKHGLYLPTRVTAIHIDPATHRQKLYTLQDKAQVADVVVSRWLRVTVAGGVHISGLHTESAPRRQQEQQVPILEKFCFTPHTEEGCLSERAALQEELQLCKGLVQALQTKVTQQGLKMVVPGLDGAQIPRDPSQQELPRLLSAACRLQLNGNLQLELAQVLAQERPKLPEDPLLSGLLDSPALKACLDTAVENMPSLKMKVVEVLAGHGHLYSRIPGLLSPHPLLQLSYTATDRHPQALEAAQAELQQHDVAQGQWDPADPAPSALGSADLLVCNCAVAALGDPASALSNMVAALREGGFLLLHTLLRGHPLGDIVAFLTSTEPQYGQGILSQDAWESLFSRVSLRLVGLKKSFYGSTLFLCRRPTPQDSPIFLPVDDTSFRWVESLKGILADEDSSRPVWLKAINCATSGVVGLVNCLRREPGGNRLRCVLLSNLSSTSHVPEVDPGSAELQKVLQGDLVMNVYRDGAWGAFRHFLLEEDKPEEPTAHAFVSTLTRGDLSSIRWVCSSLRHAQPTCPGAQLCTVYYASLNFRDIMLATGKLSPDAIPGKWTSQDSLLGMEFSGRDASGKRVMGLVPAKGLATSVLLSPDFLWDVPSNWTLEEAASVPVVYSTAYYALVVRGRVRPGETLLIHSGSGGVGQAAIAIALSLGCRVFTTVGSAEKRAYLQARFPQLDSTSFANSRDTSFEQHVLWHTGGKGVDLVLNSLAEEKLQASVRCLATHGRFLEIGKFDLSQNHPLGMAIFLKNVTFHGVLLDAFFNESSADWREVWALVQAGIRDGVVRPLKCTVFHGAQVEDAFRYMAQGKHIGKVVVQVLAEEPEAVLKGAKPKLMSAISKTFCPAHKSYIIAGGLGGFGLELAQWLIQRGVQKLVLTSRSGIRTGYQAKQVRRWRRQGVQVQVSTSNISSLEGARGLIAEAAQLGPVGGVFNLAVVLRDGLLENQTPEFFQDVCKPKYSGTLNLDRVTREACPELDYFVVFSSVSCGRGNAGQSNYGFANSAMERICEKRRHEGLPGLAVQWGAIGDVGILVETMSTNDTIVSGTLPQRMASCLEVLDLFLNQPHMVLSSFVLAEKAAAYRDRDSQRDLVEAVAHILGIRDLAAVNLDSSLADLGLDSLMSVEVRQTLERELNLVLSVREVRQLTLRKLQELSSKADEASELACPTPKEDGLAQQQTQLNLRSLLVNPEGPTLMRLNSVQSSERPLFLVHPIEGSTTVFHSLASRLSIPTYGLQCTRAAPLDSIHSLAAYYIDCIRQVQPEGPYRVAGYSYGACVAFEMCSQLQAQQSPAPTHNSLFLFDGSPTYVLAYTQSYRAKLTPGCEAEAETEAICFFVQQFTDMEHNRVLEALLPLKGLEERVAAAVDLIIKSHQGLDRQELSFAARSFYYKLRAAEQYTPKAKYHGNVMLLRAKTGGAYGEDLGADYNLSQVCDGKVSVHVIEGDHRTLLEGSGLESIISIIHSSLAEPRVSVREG

[6] = biological target: T3, Microphthalmia-associated transcription factor (Homo sapiens, UniProt O75030); experiment: TRPM1 promoter luciferase signal decrease, dose response, MITF inhibitor project, cell-based, SK-MEL-5, cherry-picked, set 3 (AID 493073); type: functional
T3 sequence (O75030 whole entry): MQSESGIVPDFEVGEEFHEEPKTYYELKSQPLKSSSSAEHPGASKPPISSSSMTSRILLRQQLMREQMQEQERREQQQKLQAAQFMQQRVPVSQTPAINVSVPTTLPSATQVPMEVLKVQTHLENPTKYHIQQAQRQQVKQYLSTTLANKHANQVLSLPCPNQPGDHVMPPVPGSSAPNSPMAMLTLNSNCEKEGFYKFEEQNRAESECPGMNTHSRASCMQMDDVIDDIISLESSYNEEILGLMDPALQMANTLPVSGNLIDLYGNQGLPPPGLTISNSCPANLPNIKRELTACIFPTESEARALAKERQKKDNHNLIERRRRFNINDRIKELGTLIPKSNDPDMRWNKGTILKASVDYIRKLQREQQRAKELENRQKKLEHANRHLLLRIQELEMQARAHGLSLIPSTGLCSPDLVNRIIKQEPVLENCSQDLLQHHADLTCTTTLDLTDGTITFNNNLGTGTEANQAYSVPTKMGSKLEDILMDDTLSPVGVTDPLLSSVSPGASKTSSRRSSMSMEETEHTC

Cytochrome P450 2C9 = Cytochrome P450 2C9 (Homo sapiens, UniProt P11712)
Cytochrome P450 2C9, sequence (P11712 whole entry): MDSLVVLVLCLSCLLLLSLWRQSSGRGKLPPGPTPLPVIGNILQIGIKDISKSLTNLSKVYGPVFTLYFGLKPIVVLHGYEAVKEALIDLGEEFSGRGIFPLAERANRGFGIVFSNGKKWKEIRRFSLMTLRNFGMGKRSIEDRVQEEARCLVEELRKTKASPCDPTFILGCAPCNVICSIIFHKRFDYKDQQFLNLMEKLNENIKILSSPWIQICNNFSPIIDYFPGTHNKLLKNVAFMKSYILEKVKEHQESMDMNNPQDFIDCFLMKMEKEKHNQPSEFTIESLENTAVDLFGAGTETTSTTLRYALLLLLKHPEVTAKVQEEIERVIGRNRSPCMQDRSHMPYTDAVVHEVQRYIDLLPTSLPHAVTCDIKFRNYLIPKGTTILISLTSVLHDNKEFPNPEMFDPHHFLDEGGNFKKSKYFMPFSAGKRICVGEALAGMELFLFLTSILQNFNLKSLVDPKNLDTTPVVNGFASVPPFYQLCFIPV

Cytochrome P450 2C19 = Cytochrome P450 2C19 (Homo sapiens, UniProt P33261); experiment: Cytochrome panel assay with activity outcomes. Panel member name: p450-cyp2c19 Compounds with AC50 equal or less than 10 uM are considered active; type: functional; conditions: read-out: AC50
Cytochrome P450 2C19, sequence (P33261 whole entry): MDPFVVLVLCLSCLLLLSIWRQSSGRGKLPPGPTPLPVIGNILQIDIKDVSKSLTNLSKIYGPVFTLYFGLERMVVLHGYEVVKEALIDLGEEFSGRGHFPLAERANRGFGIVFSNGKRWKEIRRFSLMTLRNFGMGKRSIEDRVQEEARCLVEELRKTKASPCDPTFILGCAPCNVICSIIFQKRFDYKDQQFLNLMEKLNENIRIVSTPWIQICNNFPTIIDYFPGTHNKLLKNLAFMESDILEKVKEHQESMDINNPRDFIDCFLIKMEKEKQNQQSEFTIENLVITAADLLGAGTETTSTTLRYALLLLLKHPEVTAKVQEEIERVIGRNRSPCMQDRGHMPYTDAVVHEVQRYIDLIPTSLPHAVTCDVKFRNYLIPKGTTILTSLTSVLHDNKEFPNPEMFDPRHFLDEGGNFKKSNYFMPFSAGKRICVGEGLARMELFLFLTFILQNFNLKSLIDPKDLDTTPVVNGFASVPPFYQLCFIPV

[7] = control 3'UTR Renilla luciferase suppression, dose response, counter-screen for Shn3 inhibitor project, cell-based, Clone20-Shn3RL, cherry-picked (AID 624133); type: functional
Paired box protein Pax-8 = Paired box protein Pax-8 (Homo sapiens, UniProt Q06710); experiment: inhibitors of PAX8-driven TPO luciferase reporter, dose response, RMG-I cells, cherry-pick (AID 687027); type: functional, cell-based;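 further: luciferase reporter driven by Pax8 target thyroperoxidase promoter measured by SteadyGlo luminescence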
Paired box protein Pax-8, sequence (Q06710 whole entry): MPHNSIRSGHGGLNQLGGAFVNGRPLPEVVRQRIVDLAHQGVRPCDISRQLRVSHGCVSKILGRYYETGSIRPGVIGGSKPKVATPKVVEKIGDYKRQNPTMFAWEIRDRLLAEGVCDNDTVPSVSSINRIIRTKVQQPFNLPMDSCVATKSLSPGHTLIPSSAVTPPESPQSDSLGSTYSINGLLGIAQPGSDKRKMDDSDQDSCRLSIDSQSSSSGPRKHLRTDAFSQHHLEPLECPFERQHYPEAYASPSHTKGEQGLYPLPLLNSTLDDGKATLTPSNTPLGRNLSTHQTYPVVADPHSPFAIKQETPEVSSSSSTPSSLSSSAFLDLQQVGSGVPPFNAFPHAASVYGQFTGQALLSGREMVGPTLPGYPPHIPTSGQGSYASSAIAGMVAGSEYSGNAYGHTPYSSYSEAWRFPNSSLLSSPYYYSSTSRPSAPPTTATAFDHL

[8] = Shn3 3'UTR reporter inhibitors, dose response, cell-based, Clone20 osteoblasts, firefly luciferase, cherry-picked (AID 624132); type: functional;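 further: firefly luciferase luminescence from reporter carrying the Shn3 3'UTR in osteoblasts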
[9] = inhibitors of HIV Env-driven cell fusion, dose response, cherry-pick (AID 652057); type: functional, cell-based
[10] = inhibitors of clade B AD8 Env fusion, dose response, cell-based, cherry-pick (AID 652062); type: functional;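 further: luciferase signal from cell-cell fusion driven by HIV-1 clade B AD8 Env; potency is for inhibitors of fusion seen as a drop in luminescence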
[11] = ZM109 Env clade C HIV-1 fusion inhibitors, dose response, HeLa effector, CEM target cells, luciferase, cherry-pick (AID 652058); type: functional, cell-based
[12] = CEM21 lymphoblast cell cytotoxicity, dose response, cytotoxicity control for viral fusion inhibitor project, CellTiter-Glo luminescence, cherry-picked (AID 652042); type: functional, cell-based;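 further: potency for signal decrease meaning cytotoxicity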
[13] = cytotoxicity toward NIH3T3 fibroblasts, dose response, counter-screen, cell-based, ATP luminescence, mouse fibroblasts (AID 2010); type: functional;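 further: cells exposed to compound for about 90 hours before reading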
[14] = inhibitors of intracellular T. cruzi replication, confirmation, NIH3T3 host cells, beta-gal luminescence (AID 2044); type: functional, cell-based;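 further: intracellular parasites grown in NIH/3T3 mouse fibroblasts as host cells; luminescent beta-galactosidase reporter signal from transgenic T. cruzi replicating inside host cells; inhibitors lower the luminescence signal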
cells [15] = type: functional, cell-based
INS1 = experiment: beta cell apoptosis inhibitors, cytokine rescue, dose response, luminescence, retest (AID 449756); type: functional, cell-based; conditions: Rattus norvegicus;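 further: cell death triggered by IL-1 beta plus TNF-alpha plus IFN-gamma mixture; protective hits raise ATP signal compared with cytokine alone wells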
cells [16] = type: functional, cell-based; remark: listed apart in the source
Coagulation factor XII = biological target: T4, Coagulation factor XII (Homo sapiens, UniProt P00748); type: functional;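 further: activated factor XIIa alpha cleaving a fluorogenic AMC peptide substrate; inhibitor potency from loss of enzyme activity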
T4 sequence (P00748 whole entry): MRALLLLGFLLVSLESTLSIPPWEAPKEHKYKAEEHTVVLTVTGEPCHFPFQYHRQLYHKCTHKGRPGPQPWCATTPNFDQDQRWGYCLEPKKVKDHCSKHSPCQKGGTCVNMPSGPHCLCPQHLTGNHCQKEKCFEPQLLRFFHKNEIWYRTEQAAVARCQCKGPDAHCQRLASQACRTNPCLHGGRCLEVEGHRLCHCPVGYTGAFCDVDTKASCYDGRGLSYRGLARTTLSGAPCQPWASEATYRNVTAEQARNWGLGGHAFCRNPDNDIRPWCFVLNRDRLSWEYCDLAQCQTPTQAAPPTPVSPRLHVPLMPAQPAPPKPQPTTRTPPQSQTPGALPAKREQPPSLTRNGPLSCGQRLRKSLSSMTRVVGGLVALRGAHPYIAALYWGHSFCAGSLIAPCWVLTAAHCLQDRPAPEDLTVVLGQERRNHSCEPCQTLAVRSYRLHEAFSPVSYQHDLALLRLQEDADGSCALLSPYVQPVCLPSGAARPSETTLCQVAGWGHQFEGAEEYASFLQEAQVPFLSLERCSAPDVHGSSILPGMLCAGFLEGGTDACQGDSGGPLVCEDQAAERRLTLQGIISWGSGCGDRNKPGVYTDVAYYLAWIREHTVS

Structure (SMILES): CCn1nccc1C(=O)Nc1ccc(Cl)c(Cl)c1
- IC50 (Protein skinhead-1): 43.4 µM (active)

Structure (SMILES): CCCN(CCC)CCCNC(=O)C1CCC(CNS(=O)(=O)c2cccc3nsnc23)CC1 (stereo unspecified)
- EC50 [1]: 0.531 µM (active)

Structure (SMILES): Cc1nc2cc(-c3ccccc3)nn2c(C)c1CCC(=O)N1CCC2(CC1)OCCO2
- EC50 [2]: 0.259 µM (active)
- EC50 [3]: 14.6 µM (active)
- EC50 [4]: < 0.1 µM (active)
- IC50 [5]: > 80 µM (inactive)

Structure (SMILES): O=C(C[C@H]1C[C@H](C(=O)N2CCOCC2)[C@@]2(CCC3CCCC3)c3[nH]c4cc(-c5ccco5)ccc4c3CCN2C1=O)NCCc1ccccn1
- IC50 (Fatty acid synthase): 7.01 µM (active)

Structure (SMILES): O=C(CCl)N1CCN(S(=O)(=O)c2ccc3c(c2)CCC3)CC1
- AC50 [6]: 20.7 µM (active)
- IC50 [5]: > 80 µM (inactive)

Structure (SMILES): COCCCNC(=O)/C=C/c1cccc(Cl)c1
- AC50 (Cytochrome P450 2C9): inconclusive
- AC50 (Cytochrome P450 2C19): 15.8 µM (inconclusive)

Structure (SMILES): COC(=O)C12OCC34C(CC5C(C)=C(O)C(=O)CC5(C)C3C(O)C1O)OC(=O)C(OC(=O)/C=C(\C)C(C)C)C24 (stereo unspecified)
- AC50 [7]: < 0.26 µM (active)
- AC50 (Paired box protein Pax-8): < 0.26 µM (active)
- IC50 (Protein skinhead-1): 42.7 µM (active)
- AC50 [8]: < 0.26 µM (active)

Structure (SMILES): C[C@H]1CN([C@@H](C)CO)C(=O)Cc2cc(NC(=O)Nc3cccc4ccccc34)ccc2O[C@H]1CN(C)S(=O)(=O)c1ccccc1
- AC50 [9]: < 0.26 µM (active)
- AC50 [10]: 1.07 µM (active)
- AC50 [11]: < 0.26 µM (active)
- AC50 [12]: 33.8 µM (active)

Structure (SMILES): C[C@H](CO)N1C[C@H](C)[C@H](CN(C)S(=O)(=O)c2cccc(C#N)c2)OCc2ccccc2-c2c(n(C)c3ccccc23)C1=O
- AC50 [9]: 0.726 µM (active)
- AC50 [10]: 10.3 µM (active)
- AC50 [11]: 3.13 µM (active)
- AC50 [12]: 46.1 µM (active)

Structure (SMILES): COc1ccc(/C(C)=N/NC(=O)c2cccc(S(=O)(=O)N3CCCC3)c2)c(O)c1
- AC50 [10]: 17.4 µM (active)
- EC50 [13]: 3.07 µM (active)
- EC50 [14]: 1.05 µM (active)
- EC50 (cells [15]): 11.6 µM (active)
- AC50 (INS1): 0.631 µM (active)
- AC50 [12]: 3.55 µM (active)
- EC50 (cells [16]): > 350 µM (not active)

Structure (SMILES): O=C1CN(Cc2ccccc2)/C(=N\Cc2ccco2)S1
- IC50 (Coagulation factor XII): > 50 µM (inactive)
